Data as given in patent US20250282760A1 (Merck Sharp & Dohme LLC, priority 2022, published 2025).

Molecular target: T1, human OX2R (Homo sapiens, UniProt O43614)
T1 construct: expressed in transfected cells; host or cells: Chinese hamster ovary (CHO) cells, kept under G418 selection
T1 sequence (O43614 1-444): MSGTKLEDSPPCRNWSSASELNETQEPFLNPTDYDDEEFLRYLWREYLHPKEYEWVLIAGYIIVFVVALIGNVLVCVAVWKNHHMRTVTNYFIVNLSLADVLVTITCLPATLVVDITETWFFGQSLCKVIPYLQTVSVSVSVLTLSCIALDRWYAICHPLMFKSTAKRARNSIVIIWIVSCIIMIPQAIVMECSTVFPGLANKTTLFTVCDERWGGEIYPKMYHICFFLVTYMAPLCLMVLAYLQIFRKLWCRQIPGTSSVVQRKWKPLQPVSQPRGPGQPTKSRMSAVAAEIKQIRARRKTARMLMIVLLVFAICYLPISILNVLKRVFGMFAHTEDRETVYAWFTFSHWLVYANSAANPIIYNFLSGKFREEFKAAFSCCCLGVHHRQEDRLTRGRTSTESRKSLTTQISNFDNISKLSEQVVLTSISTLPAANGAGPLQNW
Assay: IPOne (IP-1 accumulation) assay of orexin receptor agonist activity in CHO cells expressing human OX2R
Format: cell-based
Details: for IC50: CHO cells expressing human OX2R, IP-One assay, 2 hours incubation, four parameter logistic fit, read-out: hOX2R_IP IC50; for Emax: CHO, percent activity at maximum tested concentration, relative to reference compound at 1 uM (100% activity) for human OX2R
From the text: The utility of the compounds in accordance with the present invention as orexin receptor OX1R and/or OX2R agonists may be readily determined without undue experimentation by methodology well known in the art. Both the OX1R and/or OX2R G-coupled protein receptors (GPCRs) couple through the Gαq signaling pathway, which ultimately promotes calcium mobilization via inositol triphosphate (IP3) production. […] The utility of the compounds in accordance with the present invention as orexin receptor OX1R and/or OX2R agonists may be determined utilizing this assay.
In a typical experiment, the OX1 and OX2 receptor agonist activity is determined in accordance with the following general experimental method. Chinese hamster ovary (CHO) cells expressing human OX1R and/or the human OX2R were grown in Iscove's modified DMEM containing glutaMAX™, 1% G418, 100 U/mL penicillin, 100 μg/mL streptomycin and 10% heat-inactivated qualified fetal bovine serum (FBS). […] During this incubation, IP-one detection reagents were prepared (38:1:1 lysis buffer:D2:AB-cryptate reagents).
For each compound, data were fit to a four parameter logistic fit (ActivityBase software) and the EC50 was reported as the inflection point of the resulting curve. Percent effect for each test compound was determined as the percentage of sample raw value/mean max effect, where the mean max effect was derived from the mean raw value of 32 control wells per assay plate (using Orexin A (cat #003-30) at 1 μM for human OX1R and a reference compound at 1 uM with 100% activity previously established by comparison to Orexin A for human OX2R). The intrinsic orexin receptor agonist activity of a compound which may be used in the present invention may be determined by these assays.

| IC50 | Emax | SMILES |
| --- | --- | --- |
| 1870 nM | 98.9% | O=C(NCc1ccc2ccccc2c1)C1CN(S(=O)(=O)c2ccccc2)CCN1C(=O)c1nccs1 (centres unmarked) [Example 10-7, N-(naphthalen-2-ylmethyl)-4-(phenylsulfonyl)-1-(thiazole-2-carbonyl)piperazine-2-carboxamide] |
| 10.9 nM | 99.5% | CCc1cc(-c2ccco2)ccc1CNC(=O)[C@H]1CN(S(=O)(=O)c2ccccc2)C[C@@H](C)N1C(=O)C(C)C (relative stereo) [Example 47-6, cis-N-(2-ethyl-4-(furan-2-yl)benzyl)-1-isobutyryl-6-methyl-4-(phenylsulfonyl)piperazine-2-carboxamide] |
| 12200 nM | 87.8% | CCCC(=O)N1CCN(S(=O)(=O)c2ccccc2)CC1C(=O)NCc1ccc2ccccc2c1 (centres unmarked) [Example 10-3, 1-butyryl-N-(naphthalen-2-ylmethyl)-4-(phenylsulfonyl)piperazine-2-carboxamide] |
| 8900 nM | 97.4% | CCC(=O)N1CCN(S(=O)(=O)c2ccccc2)CC1C(=O)NCc1ccc2ccccc2c1 (centres unmarked) [Example 10-2, N-(naphthalen-2-ylmethyl)-4-(phenylsulfonyl)-1-propionylpiperazine-2-carboxamide] |
| 93.9 nM | 89.9% | CC(C)C(=O)N1C(C(=O)NCc2ccc(-c3ccco3)cc2)CN(S(=O)(=O)c2ccccc2)CC1(C)C (centres unmarked) [Example 83, N-(4-(furan-2-yl)benzyl)-1-isobutyryl-6,6-dimethyl-4-(phenylsulfonyl)piperazine-2-carboxamide] |
| 2430 nM | 89.4% | Cc1ccsc1C(=O)N1CCN(S(=O)(=O)c2ccccc2)CC1C(=O)NCc1ccc2ccccc2c1 (centres unmarked) [Example 10-12, 1-(3-methylthiophene-2-carbonyl)-N-(naphthalen-2-ylmethyl)-4-(phenylsulfonyl)piperazine-2-carboxamide] |
| 6090 nM | 67.5% | N#Cc1cccc(S(=O)(=O)N2CCN(C(=O)c3cccs3)C(C(=O)NCc3ccc4ccccc4c3)C2)c1 (centres unmarked) [Example 89-6, 4-[(3-cyanophenyl)sulfonyl]-N-[(naphthalen-2-yl)methyl]-1-(thiophene-2-carbonyl)piperazine-2-carboxamide] |
| 4310 nM | 101% | CCC(C)C(=O)N1CCN(S(=O)(=O)c2ccccc2)CC1C(=O)NCc1ccc2ccccc2c1 (centres unmarked) [Example 10-1, 1-(2-methylbutanoyl)-N-(naphthalen-2-ylmethyl)-4-(phenylsulfonyl)piperazine-2-carboxamide] |
| 81.3 nM | 98.7% | CC(C)C(=O)N1[C@H](C)CN(S(=O)(=O)c2ccccc2)C[C@@H]1C(=O)NCc1ccc(-c2nccs2)cc1 (relative stereo) [Example 19-6, cis-1-isobutyryl-6-methyl-4-(phenylsulfonyl)-N-(4-(thiazol-2-yl)benzyl)piperazine-2-carboxamide] |
| 2540 nM | 94.3% | C[C@@H]1CN(S(=O)(=O)c2ccccc2)C[C@H](C(=O)NCc2ccc3ccccc3c2)N1C(=O)c1cccs1 (relative stereo) [Example 57, cis-6-methyl-N-(naphthalen-2-ylmethyl)-4-(phenylsulfonyl)-1-(thiophene-2-carbonyl)piperazine-2-carboxamide] |
| 22.7 nM | 100% | CC(C)C(=O)N1[C@H](C)CN(S(=O)(=O)c2ccccc2)C[C@@H]1C(=O)NCc1ccc(OC(C)(F)F)cc1 (single isomer, unassigned) [Example 19-4-1] |
| 79.5 nM | 101% | CC(C)C(=O)N1[C@H](C)CN(S(=O)(=O)c2ccccc2)C[C@@H]1C(=O)NCc1ccc(-c2ncccn2)cc1 (relative stereo) [Example 19-5, cis-1-isobutyryl-6-methyl-4-(phenylsulfonyl)-N-(4-(pyrimidin-2-yl)benzyl)piperazine-2-carboxamide] |
| 264 nM | 93.1% | CCOc1ccc(CNC(=O)[C@H]2CN(S(=O)(=O)c3ccccc3)C[C@@H](C)N2C(=O)C(C)C)cc1 (relative stereo) [Example 19-11, cis-N-(4-ethoxybenzyl)-1-isobutyryl-6-methyl-4-(phenylsulfonyl)piperazine-2-carboxamide] |
| 5000 nM | 96.8% | O=C(NCc1ccc2ccccc2c1)C1CN(S(=O)(=O)c2ccccc2)CCN1C(=O)C1CCC1 (centres unmarked) [Example 10-6, 1-(cyclobutanecarbonyl)-N-(naphthalen-2-ylmethyl)-4-(phenylsulfonyl)piperazine-2-carboxamide] |
| 504 nM | 99.7% | CC(C)C(=O)N1[C@H](C)CN(S(=O)(=O)c2ccccc2)C[C@@H]1C(=O)NCc1cnc(-c2ccco2)cn1 (single isomer, unassigned) [Example 35, cis-N-((5-(furan-2-yl)pyrazin-2-yl)methyl)-1-isobutyryl-6-methyl-4-(phenylsulfonyl)piperazine-2-carboxamide] |
| 70.2 nM | 101% | CC(C)C(=O)N1[C@H](C)CN(S(=O)(=O)c2ccccc2)C[C@@H]1C(=O)NCc1ccc(OC(C)(F)F)cc1 (relative stereo) [Example 19-4, cis-N-(4-(1,1-difluoroethoxy)benzyl)-1-isobutyryl-6-methyl-4-(phenylsulfonyl)piperazine-2-carboxamide] |
| 29.5 nM | 99.7% | CC(C)C(=O)N1[C@H](C)CN(S(=O)(=O)c2ccccc2)C[C@@H]1C(=O)NCc1cc(F)c(-c2ccco2)c(F)c1 (relative stereo) [Example 47-3, cis-N-(3,5-difluoro-4-(furan-2-yl)benzyl)-1-isobutyryl-6-methyl-4-(phenylsulfonyl)piperazine-2-carboxamide] |
| 100000 nM | 19.4% | Cc1ccccc1C(=O)N1CCN(S(=O)(=O)c2ccccc2)CC1C(=O)NCc1ccc2ccccc2c1 (centres unmarked) [Example 10-11, 1-(2-methylbenzoyl)-N-(naphthalen-2-ylmethyl)-4-(phenylsulfonyl)piperazine-2-carboxamide] |
| 13.1 nM | 99.6% | Cc1cc(-c2ccco2)ccc1CNC(=O)[C@H]1CN(S(=O)(=O)c2ccccc2)C[C@@H](C)N1C(=O)C(C)C (relative stereo) [Example 29, cis-N-(4-(furan-2-yl)-2-methylbenzyl)-1-isobutyryl-6-methyl-4-(phenylsulfonyl)piperazine-2-carboxamide] |
| 6280 nM | 97.8% | CC(C)C(=O)N1[C@H](C)CN(S(=O)(=O)c2ccccc2)C[C@@H]1C(=O)NCc1ncc(-c2ccco2)cn1 (single isomer, unassigned) [Example 39] |
| 11700 nM | 93.9% | O=C(NCc1ccc2ccccc2c1)C1CN(S(=O)(=O)c2ccccc2)CCN1C(=O)c1cncs1 (centres unmarked) [Example 10-10, N-(naphthalen-2-ylmethyl)-4-(phenylsulfonyl)-1-(thiazole-5-carbonyl)piperazine-2-carboxamide] |
| 6570 nM | 82.7% | Cc1ccccc1S(=O)(=O)N1CCN(C(=O)c2cccs2)C(C(=O)NCc2ccc3ccccc3c2)C1 (centres unmarked) [Example 89-3, 4-[(2-methylphenyl)sulfonyl]-N-[(naphthalen-2-yl)methyl]-1-(thiophene-2-carbonyl)piperazine-2-carboxamide] |
| 121 nM | 100% | CC(C)C(=O)N1[C@H](C)CN(S(=O)(=O)c2ccccc2)C[C@@H]1C(=O)NCc1ccc(-c2ccccn2)cc1 (relative stereo) [Example 42-1, cis-1-isobutyryl-6-methyl-4-(phenylsulfonyl)-N-(4-(pyridin-2-yl)benzyl)piperazine-2-carboxamide] |
| 19200 nM | 38.4% | COc1cc(CNC(=O)[C@H]2CN(S(=O)(=O)c3ccccc3)C[C@@H](C)N2C(=O)C(C)C)ccc1-c1ccco1 (relative stereo) [Example 47-1, cis-N-(4-(furan-2-yl)-3-methoxybenzyl)-1-isobutyryl-6-methyl-4-(phenylsulfonyl)piperazine-2-carboxamide] |
| 5300 nM | 83.6% | O=C(NCc1ccc2ccccc2c1)C1CN(S(=O)(=O)c2cccc(F)c2)CCN1C(=O)c1cccs1 (centres unmarked) [Example 89-10, 4-[(3-fluorophenyl)sulfonyl]-N-[(naphthalen-2-yl)methyl]-1-(thiophene-2-carbonyl)piperazine-2-carboxamide] |
